The values that follow come from ChEMBL document CHEMBL1201862, “PubChem BioAssay data set” (2004).

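Where inhibition never reached the appropriate level, the endpoint shown equals the highest concentration tested. Otherwise, values were interpolated linearly from a five-concentration, 48-hour dose response in 96-well plates. GI50: concentration for 50% inhibition of growth.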 Active and inactive are the calls of the source. Rule as the data show it: active = GI50 up to about 1.1 µM and inactive = higher.

Some test systems named below: KM12; UO-31; HOP-62; SF-295; HCT-116; SNB-75; HCC 2998; OVCAR-4; NCI-H522; SW-620; SK-MEL-28; NCI-H460; MOLT-4; A549; NCI-H226; OVCAR-8; U-251; HT-29; EKVX; UACC-62.
Assay in all cases: inhibition of tumour cell growth, NCI panel, 48 h

Take `CC(=O)Nc1ccc2[nH]c(C(=O)N3CC(CCl)c4c3cc(N)c3ccccc43)cc2c1` (stereo unspecified): the GI50 in the assay with KM12 was < 0.01 µM (active); in the assay on UO-31 it was 0.014 µM (active); in the assay on HOP-62 it was < 0.0152 µM (active); in the assay with SF-295 it was 0.0135 µM (active); in the assay on HCT-116, 0.0137 µM (active); in the assay on SNB-75, < 0.01 µM (active). The GI50 was < 0.01 µM (active) with HCC 2998; < 0.01 µM (active) in the assay with OVCAR-4; < 0.01 µM (active) in the assay with NCI-H522; 0.0118 µM (active) in the assay with SW-620; 0.0161 µM (active) in the assay on SK-MEL-28; < 0.01 µM (active) in the assay on NCI-H460. The GI50 with MOLT-4 is < 0.0115 µM (active); with A549 it was 0.0128 µM (active); in the assay on NCI-H226, < 0.0135 µM (active); with OVCAR-8, < 0.0133 µM (active); with U-251, 0.0143 µM (active); in the assay on HT-29, < 0.0127 µM (active). Further, the values for the GI50 in the assay on EKVX and in the assay with UACC-62 were < 0.0148 µM (active) and 0.0101 µM (active), respectively.
Take `CCCCCCCCCOCC(COP(=O)([O-])OCC[N+](C)(C)C)OC` (stereo unspecified): the GI50 in the assay with KM12, in the assay with UO-31, in the assay on HOP-62, in the assay with SF-295, in the assay with HCT-116 and in the assay on SNB-75 was > 100 µM (inactive) each time. Also, the GI50 in the assay on HCC 2998, in the assay with OVCAR-4, in the assay with NCI-H522, in the assay with SW-620, with SK-MEL-28 and in the assay on NCI-H460 was > 100 µM (inactive) in each case. The GI50 with MOLT-4 was > 100 µM (inactive); in the assay on A549, > 100 µM (inactive); in the assay with NCI-H226, 99.1 µM (inactive); in the assay with OVCAR-8, > 100 µM (inactive); in the assay on U-251 it was > 100 µM (inactive); in the assay on HT-29, > 100 µM (inactive). The GI50 with EKVX and in the assay on UACC-62 was > 100 µM (inactive) each time.
On to `COc1ccc(N2CN(C)CSC2=S)cc1`, for which the GI50 in the assay on KM12 was > 100 µM (inactive); in the assay with UO-31, > 100 µM (inactive); with HOP-62, 25.9 µM (inactive); in the assay with SF-295 it was 23.4 µM (inactive); in the assay with HCT-116 it was 71.3 µM (inactive); with SNB-75, > 100 µM (inactive). In addition, the GI50 was > 100 µM (inactive) in the assay with HCC 2998; > 100 µM (inactive) in the assay with OVCAR-4; 29.7 µM (inactive) in the assay with NCI-H522; 43 µM (inactive) with SW-620; > 100 µM (inactive) with SK-MEL-28; 76 µM (inactive) with NCI-H460. The GI50 is 76.7 µM (inactive) in the assay on MOLT-4; > 100 µM (inactive) in the assay with A549; > 100 µM (inactive) in the assay with OVCAR-8; > 100 µM (inactive) with U-251; > 100 µM (inactive) in the assay with HT-29; > 100 µM (inactive) in the assay on EKVX. The GI50 with UACC-62 was > 100 µM (inactive).
In the case of `CCOC(=O)NC(=O)c1cn(CCN(CCO)C(=O)NCCCCCCNC(=O)N(CCO)CCn2cc(C(=O)NC(=O)OCC)c(=O)[nH]c2=O)c(=O)[nH]c1=O`, the GI50 with KM12, with UO-31, in the assay on HOP-62, in the assay with SF-295, in the assay with HCT-116 and in the assay on SNB-75 was > 100 µM (inactive) throughout. Further, the GI50 in the assay on HCC 2998, in the assay on OVCAR-4, with NCI-H522, with SW-620, with SK-MEL-28 and in the assay with NCI-H460 was > 100 µM (inactive) throughout. Moreover, the GI50 in the assay on MOLT-4 is > 100 µM (inactive); in the assay on A549, > 100 µM (inactive); with NCI-H226, > 100 µM (inactive); in the assay on OVCAR-8 it was > 100 µM (inactive); in the assay with U-251 it was > 100 µM (inactive); in the assay on HT-29 it was > 61 µM (inactive). For the same compound, the GI50 in the assay on EKVX and with UACC-62 was > 100 µM (inactive) each time.
Take `COc1ccc(-c2c3ccccc3c(-c3ccc(OCCCCCBr)cc3)c3ccccc23)cc1`: the GI50 in the assay with KM12, in the assay on UO-31, in the assay with HOP-62, with SF-295, with HCT-116 and in the assay on HCC 2998 was > 100 µM (inactive) throughout. Further, the GI50 in the assay on OVCAR-4, with NCI-H522, in the assay on SW-620, with SK-MEL-28, in the assay on NCI-H460 and in the assay with MOLT-4 was > 100 µM (inactive) each time. For the same compound, the GI50 with A549, in the assay on NCI-H226, in the assay on OVCAR-8, with HT-29, in the assay with EKVX and in the assay with UACC-62 was > 100 µM (inactive) each time.
In the case of `CN(C)[C@@H]1C(O)=C(C(=O)NCN2CCN(C(=N)NC(=N)N)CC2)C(=O)[C@@]2(O)C(O)=C3C(=O)c4c(O)cccc4[C@@](C)(O)[C@H]3C[C@@H]12`, the GI50 with KM12 was 0.368 µM (active); in the assay on UO-31, 0.301 µM (active); with HOP-62, 1.14 µM (inactive); in the assay with SF-295 it was 0.506 µM (active); in the assay with HCT-116 it was 0.221 µM (active); in the assay on SNB-75, 0.138 µM (active). Also, the GI50 in the assay on HCC 2998 was 0.337 µM (active); with NCI-H522, 0.0329 µM (active); in the assay on SW-620, 0.16 µM (active); in the assay with SK-MEL-28, 0.238 µM (active); in the assay with NCI-H460, 0.324 µM (active); in the assay on MOLT-4, 0.0597 µM (active). Moreover, the GI50 with OVCAR-8 was 0.273 µM (active); in the assay on U-251, 0.269 µM (active); in the assay on HT-29, 0.123 µM (active); in the assay on EKVX it was 0.286 µM (active); in the assay with UACC-62, 0.172 µM (active).
`Cc1ccc(S(=O)(=O)NCCCSCCSCCCN)cc1`: the GI50 in the assay on KM12, in the assay with UO-31, in the assay with SF-295, with HCT-116, in the assay on SNB-75 and in the assay with HCC 2998 was > 100 µM (inactive) throughout. For the same compound, the GI50 in the assay on OVCAR-4, in the assay with NCI-H522, in the assay on SW-620, in the assay with SK-MEL-28, with NCI-H460 and in the assay with MOLT-4 was > 100 µM (inactive) in each case. The GI50 in the assay with A549, in the assay on NCI-H226, with OVCAR-8, in the assay with U-251 and with HT-29 was > 100 µM (inactive) throughout.
In the case of `C=CCn1c(=O)c(Br)nn(CCOCP(=O)(OCC)OCC)c1=O`, the GI50 in the assay with KM12, in the assay on UO-31, with HOP-62, with SNB-75, in the assay on HCC 2998 and with NCI-H522 was > 100 µM (inactive) each time. Also, the GI50 with SW-620, in the assay with SK-MEL-28, with NCI-H460, with MOLT-4, with A549 and with NCI-H226 was > 100 µM (inactive) in each case. Moreover, the GI50 with OVCAR-8, in the assay with U-251 and with EKVX was > 100 µM (inactive) each time.
